Test results: a melting point compilation (Tetko et al.; mined from patent text by program, amines drawn as free bases though some values may be those of a salt)

| SMILES | melting point |
| --- | --- |
| CCOC(=O)C1=C(C)NN=C(C(=O)OC)C1c1cccc([N+](=O)[O-])c1 (stereo not drawn) | 176 °C |
| COC(=O)C1CC2c3cccc4[nH]cc(c34)CC2N(C(C)C)C1 (stereo not drawn) | 193 to 195 °C |
| Oc1cccc(-c2noc3ncccc23)c1 | 175 to 178 °C |
| OC1CNc2nc3ccccc3n2C1 (stereo not drawn) | 158 to 160 °C |
| CN1CCN(c2cc(Cl)cc3c2c(=O)n(Cc2ccccc2)c(=O)n3Cc2ccccc2)CC1 | 113 to 116 °C |
| COc1cc(NS(C)(=O)=O)ccc1-c1nc2cc3c(cc2[nH]1)NC(=O)C3(C)C | > 300 °C |
| COc1ccc(C2COC(=O)C2CSC2CCCCC2)cc1 (stereo not drawn) | 50 to 51 °C |
| NC(=O)CNC(=O)c1ccc(-c2cccc3cc(Cc4cccc(C(F)(F)F)c4)sc23)nc1 | 191 to 192 °C |
| CCN1C=C(C(=O)O)C(=O)CC1c1cccnc1 (stereo not drawn) | 197 to 199 °C |
| CCc1cc2c(cc1F)c(S(C)(=O)=O)c(-c1ccc(S(=O)(=O)NC(C)(C)C)cn1)n2-c1ncccn1 | 244 to 248 °C |
| CN1C(=O)NCc2cccnc21 | 140 to 143 °C |
| O=C(Nc1ccc2cc(CN3CCC(CO)CC3)cnc2c1)c1ccc(-c2ccc(F)cc2)cc1 | 191 to 195 °C |
| CC(C)(O)C(C(=O)O)c1ccc(Cl)cc1 (stereo not drawn) | 65 °C |
| COc1cccc(Cc2cnc(N)nc2N)c1 | 221 to 223 °C |
| CC(C)C(NC(=O)OCc1ccccc1)C(=O)NC(Cc1ccc(OCCN2CCOCC2)cc1)C(=O)C(F)(F)C(=O)NCc1ccccc1 (stereo not drawn) | 142 °C |
| CNS(=O)(=O)c1cc(C(=O)O)cc(N2CCCC2)c1Oc1ccccc1 | 245 to 248 °C |
| CCN1c2ncc(CCc3ccnc(C(=O)OC)c3)cc2C(=O)N(C)c2ccc(Cl)nc21 | 149 °C |
| COC(=O)C1=C(CCc2ccccc2OC)NC(CC(=O)N2CCN(CC(=O)NC(C)C)CC2)=C(C(=O)OC)C1c1c(Cl)cccc1Cl (stereo not drawn) | 161 to 163 °C |
| O=C(O)CON=CCBr | 56 to 58 °C |
| Cc1oc(-c2ccccc2)nc1COc1ccc(C=O)cn1 | 116 to 117 °C |
| N#CC1(c2cccc3ccccc23)CCC(=O)CC1 | 166 to 167 °C |
| CN1C(=O)C(Br)=C(c2cn(C)c3ccccc23)C1=O | 155 to 158 °C |
| Cc1cc(SC2=C(O)CC(CCC3CCCC3)(C3CCCC3)OC2=O)c(C(C)(C)C)cc1CO (stereo not drawn) | 68 to 71 °C |
| N#Cc1cnc2sc(-c3cccc(C=O)c3)cc2c1Nc1ccc2[nH]ccc2c1 | 221 to 223 °C |
| CCCNc1c2c(nc3ccccc13)CCCC2O (stereo not drawn) | 164 °C |
| C=CCc1c(O)ccc2c1CCCC2=O | 145 to 148 °C |

| SMILES | melting point |
| --- | --- |
| OCc1cc(-c2ccccc2)cs1 | 112 to 113 °C |
| C1COC2(OC1)OCCCO2 | 137 to 140 °C |
| COc1ccc2c(-c3ccc(F)cc3F)noc2c1Cl | 189 to 191 °C |
| CCC1N=C(c2ccccc2Cl)c2cc(CC(=O)OC)sc2NC1=O (stereo not drawn) | 202 to 204 °C |
| COCCN(C)S(=O)(=O)c1ccccc1Nc1nc(Nc2cc3c(cc2OC)CCN(CC(=O)N(C)C)CC3)ncc1Cl | 67 to 76 °C |
| CC(C)(CCCCCCCc1c(-c2ccccc2)nc(-c2ccccc2)n1-c1ccccc1)C(=O)O | 119 to 120 °C |
| COC(=O)c1ccccc1S(=O)(=O)NC(=O)Nc1nc(OC)cc(OC)n1 | 185 to 190 °C |
| NNc1cc2c(nn1)CCN(C(=O)CCCc1ccccc1)C2 | 203 to 205 °C |
| COC(=O)c1ccc(NC2COC(=O)C2)cc1 (stereo not drawn) | 136 to 138 °C |
| C[C@@H]1N[C@@H](c2ccc(C#N)cc2)[C@H]2C(=O)N(Cc3ccccc3)C(=O)[C@H]21 (racemic) | 169 to 170 °C |
| O=CNc1csc(Br)n1 | 167 °C |
| Nc1n[nH]cc1C(=O)c1ccco1 | 153 to 155 °C |
| O=C(NNC(=O)c1occ(-c2ccccc2)c1-c1ccccc1)c1ccc(O)c(F)c1 | 243 to 245 °C |
| CCNC(=O)Oc1cc2c(cc1Cl)CCN(C)C[C@H]2c1ccccc1 | 133 to 134 °C |
| COc1cc2c(cc1OC)CN(CCc1ccc(NC(=O)c3cccc4c(=O)c5cccc(F)c5[nH]c34)c(C)c1)CC2 | 210 °C |
| CN(C)c1c(C(N)=O)sc2cccc(Cl)c12 | 194 to 196 °C |
| CC(C)(C)C(=N)Nc1ccccc1N1CCOCC1 | 126 °C |
| CC(C)n1nc(-c2sc(NCc3ccccc3)nc2-c2ccccc2)ccc1=O | 157 to 158 °C |
| CCOC(=O)c1c(CN2CCOCC2)nc2ccc(Cl)cc2c1-c1ccccc1 | 161 to 163 °C |
| Cc1noc(NS(=O)(=O)c2ccccc2-c2ccc(-c3cocn3)cc2)c1C | 85 to 93 °C |
| CCCCCC(=O)CCc1ccc(CCCCCCCC(=O)O)o1 | 64 to 65 °C |
| O=C(NCc1cccs1)[C@@H]1CCCN(c2cccc3c2C(=O)N(Cc2ccncc2)C3=O)C1 | 193 to 194 °C |
| FC(F)(F)c1ccc(Cl)c(-c2cccn3nc(Cl)nc23)c1 | 156 to 158 °C |
| C=C(c1cn(-c2c(Cl)cc(C(F)(F)F)cc2Cl)nc1C#N)C(F)(F)Cl | 113 to 114 °C |
| COC(OC)C(=O)CC(C)(C)C(Cc1c(C)c(Br)cn1S(=O)(=O)c1ccc(C)cc1)[N+](=O)[O-] (stereo not drawn) | 114 to 115 °C |
| COC(=O)CCCC(C)(C)c1cc(O)c(C(C)(C)C)cc1O | 136 to 139 °C |

Now from value to compound:

| melting point | SMILES |
| --- | --- |
| 174 to 176 °C | CN(C1CCN(C(=O)OC(C)(C)C)CC1)S(=O)(=O)c1ccc(Nc2nccc(Nc3ccc(F)cc3)n2)cc1 |
| 148 to 149 °C | COc1cc(Oc2ccc(S(C)(=O)=O)nc2)cc2cc(C3=NCC(CC(=O)N4CCOCC4)S3)[nH]c12 (stereo not drawn) |
| 188 to 200 °C | O=C(N/C(=C\c1c[nH]c2ccccc12)C(=O)NCCc1ccccn1)OC1C2CC3CC(C2)CC1C3 (stereo not drawn) |
| 252 to 254 °C | CCOCc1nc2c(N)nc3cc(OCc4cccc(C)c4)ccc3c2n1CC(C)(C)NS(C)(=O)=O |
| 216 to 218 °C | Nc1nc(COc2cccc(Cl)c2Cl)nc2nccnc12 |
| 255 to 258 °C | O=C(O)CCc1c(-c2cc(Cl)ccc2O)c2cc(C(F)(F)F)ccc2[nH]c1=O |
| 280 °C | Nc1nc(-n2cc(C(=O)O)c(=O)c3cc(F)c(F)c(F)c32)c(F)cc1F |
| 170 to 171 °C | CCNC(=O)CCCNC(=O)CCCNC(=O)CCCNC(=O)OC(C)(C)C |
| 213 to 215 °C | C=C(C)COC1CC2C3CCC4=CC(=O)CCC4(C)C3(F)C(O)CC2(C)C1(O)C(=O)CO (stereo not drawn) |
| 200 to 202 °C | Cc1c(NC(=O)c2ccc(-c3ccc(OC(F)(F)F)cc3)cc2)ccc2cc(CN3CCCC3)cnc12 |
| 125 °C | COc1ccccc1NC(=O)Oc1ccc2c(c1)N(Cc1ccccc1)CCC2 |
| 107 to 109 °C | CCN(CC)c1nc(Cc2ccc(OC)c(OC)c2)nc2sc(C#N)c(C)c12 |
| 133 to 139 °C | CNS(=O)(=O)Nc1ncccc1C(=O)OC |
| 123 to 126 °C | Cc1ccc(S(=O)(=O)OCCCCCCCn2c3c(c4ccccc4c2=O)C(=O)c2ccccc2-3)cc1 |
| 116 to 117 °C | CCOC(=O)C=CNC(=O)Nc1ccc(Cl)c(C(=O)OCC)c1 |
| 103 °C | O=C(c1cc(=O)c2cc(O)ccc2[nH]1)N1CCC(OCc2ccccc2)CC1 |
| 226 to 227 °C | O=C(O)c1cc(Br)ccc1NCCC=C1c2ccccc2CCc2ccccc21 |
| 122 °C | Cc1cc2nc(C(C)(C)C(=O)O)cn2nc1OCCCN1CCC(OC(c2ccccc2)c2ccccc2)CC1 |
| 248 °C | FC1=CC2NC(=S)CCC2C=C1c1cccnc1 (stereo not drawn) |
| 124 to 125 °C | COc1ccc(CC(OC)C(=O)O)cc1NC(=O)Cc1ccc(C(F)(F)F)cc1 (stereo not drawn) |
| 266 to 268 °C | CC(C)(C)C(=O)c1c[nH]c2ncc(C3CC3)nc12 |
| 161 to 164 °C | CCOC(=O)c1cn(-c2ccc(F)cc2F)c2cc(F)c(F)c(C)c2c1=O |
| 66 to 71 °C | Cc1cnc(C#N)c(C)c1[N+](=O)[O-] |

| melting point | SMILES |
| --- | --- |
| 149 to 151 °C | O=C(CO)NC1CCC(CC2CCC(NC(=O)CO)CC2)CC1 (stereo not drawn) |
| 208 to 209 °C | CC(C)(C)c1ccc(-c2c(Cl)c(CCl)nc3sc4c(c23)CCN(Cc2ccccc2)C4)cc1 |
| 197 to 199 °C | CCCN1N=C2C(=Cc3ccccc3)CS(=O)(=O)CC2C1c1ccccc1 (stereo not drawn) |
| 182 to 184 °C | CNc1ccc2[nH]c3cc(-c4ccccc4Cl)c4c(c3c2c1)C(=O)NC4=O |
| 59 to 61 °C | CCc1cc(OC)c(O)c([N+](=O)[O-])c1 |
| 110 to 112 °C | c1c[nH]c(C(c2ccc[nH]2)C23CC4CC(C2)CC(C(c2ccc[nH]2)c2ccc[nH]2)(C4)C3)c1 |
| 75 to 76 °C | COc1ccc2c(c1)CCC1(CCCCN1C(=O)C(F)(F)F)C2 (stereo not drawn) |
| > 400 °C | O=c1c2ccc(Cl)cc2[nH]c2c(=O)n(-c3ccc(Cl)cc3)nc(O)c12 |
| 185 to 189 °C | CC(C)(C)OC(=O)N1CCN(c2cc(Cl)ccc2NC(=O)c2ccnc(Cl)c2)CC1 |
| 216 to 217 °C | CC(C)(C)c1cc(-c2n[nH]c3ncccc23)cc(C(C)(C)C)c1O |
| 136 to 140 °C | Cn1nc(O)c(Cl)c1C(F)(F)F |
| 75 to 78 °C | COc1nc2cc(F)cc(CN=[N+]=[N-])c2nc1OC |
| 136 to 138 °C | CCOC(=O)C=Cc1ccc(NC(=O)Oc2ccccc2)cc1 |
| 156 to 157 °C | c1ccc(Nc2nsc3nc4ccccc4n23)nc1 |
| 118 to 119 °C | CCc1nn(C2CCCC2)c2cc(C(=O)N(C)c3c(Cl)cncc3Cl)ccc12 |
| 184 to 187 °C | COc1ccc(Oc2c(Cl)cc(-n3ncc(=O)[nH]c3=O)cc2Cl)cc1C=O |
| 205 to 207 °C | COc1cc2c3c(nc4ccc(Cl)cc4c3c1)-c1ccccc1N2 |
| 249 to 251 °C | CCCc1c(OCC=CS(=O)(=O)c2ccc(CC(=O)O)c(F)c2)ccc(C(C)=O)c1O |
| 88 to 90 °C | COC(=O)c1ccc(S(C)(=O)=O)nc1OC |
| 122 to 123 °C | Nc1ccc(CCC(=O)N(c2ccccc2)c2ccccc2)cc1N |
| 164 to 166 °C | CC(C)(C)OC(=O)N1CCc2c(n(CCOc3ccc(F)cc3)c3ccc(Cl)c(Cl)c23)CC1 |
| 156 to 157 °C | CC(NC(=O)NO)c1ccc2ccccc2c1 (stereo not drawn) |
| 157 to 158 °C | CS(=O)(=O)NC(=O)CNC(=O)NCCCCC1CCSS1 (stereo not drawn) |
